For orientation: IC50 means the concentration that inhibits the measured activity by half.

This note sets out measurements from publication PMC6663863, “The inositol hexakisphosphate kinases IP6K1 and -2 regulate human cellular phosphate homeostasis, including XPR1-mediated phosphate export” (The Journal of Biological Chemistry, 2019).

This experiment has as its target T1, SPX^XPR1 (recombinant His-tagged SPX domain of human XPR1) (Homo sapiens, UniProt Q9UBH6).
T1 construct: SPX domain only, N-terminal cytosolic part; residue borders not given, cloning primers encode start MKFAEHL and end PPLGAAQ-stop; His tag (modified pHisTrcA), HisTrap purified
T1 sequence (Q9UBH6 1-227): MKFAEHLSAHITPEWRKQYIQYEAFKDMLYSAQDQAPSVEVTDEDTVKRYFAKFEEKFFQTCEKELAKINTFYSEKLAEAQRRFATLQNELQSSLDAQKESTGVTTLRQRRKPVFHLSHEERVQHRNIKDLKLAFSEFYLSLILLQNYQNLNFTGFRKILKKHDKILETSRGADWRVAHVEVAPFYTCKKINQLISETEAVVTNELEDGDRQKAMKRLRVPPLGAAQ
The experiment is described as follows: competition with [3H]IP6, PEG precipitation. The class given is binding.
Turning to `O=P(O)(O)O[C@H]1[C@@H](OP(=O)(O)O)[C@H](OP(=O)(O)O)[C@@H](OP(=O)(O)OP(=O)(O)O)[C@H](OP(=O)(O)O)[C@H]1OP(=O)(O)O` [5-IP7, 5-diphosphoinositol pentakisphosphate], the IC50 is about 4.2 µM.
As for `O=P(O)(O)O[C@@H]1[C@@H](OP(=O)(O)O)[C@@H](OP(=O)(O)O)[C@@H](OP(=O)(O)OP(=O)(O)O)[C@H](OP(=O)(O)O)[C@H]1OP(=O)(O)O` [1-IP7], the IC50 is about 8.4 µM.
In the case of `O=P(O)(O)O[C@H]1[C@H](OP(=O)(O)O)[C@@H](OP(=O)(O)O)[C@H](OP(=O)(O)O)[C@@H](OP(=O)(O)O)[C@H]1OP(=O)(O)O` [IP6, inositol hexakisphosphate] it was about 9.8 µM.
For `O=P(O)(O)O[C@@H]1[C@@H](OP(=O)(O)O)[C@H](OP(=O)(O)O)[C@H](O)[C@H](OP(=O)(O)O)[C@H]1OP(=O)(O)O` [I(1,3,4,5,6)P5], the IC50 was determined as 28.1 ± 3.9 µM.
